Measurements as given in patent US7238691B2, “Piperidine derivatives and their use as modulators of chemokine (especially CCR3) activity” (AstraZeneca AB, priority 2001, dated 2007).

How the values were obtained:
[1] = target: T1, CCR3 (Homo sapiens, UniProt P51677); assay: Human eosinophil chemotaxis (eotaxin mediated); format: cell-based; conditions: compound at 1 μM
T1 construct: Human eosinophils were isolated from EDTA anticoagulated peripheral blood; endogenous in cells; host or cells: human peripheral blood eosinophils
T1 sequence (P51677 1-355): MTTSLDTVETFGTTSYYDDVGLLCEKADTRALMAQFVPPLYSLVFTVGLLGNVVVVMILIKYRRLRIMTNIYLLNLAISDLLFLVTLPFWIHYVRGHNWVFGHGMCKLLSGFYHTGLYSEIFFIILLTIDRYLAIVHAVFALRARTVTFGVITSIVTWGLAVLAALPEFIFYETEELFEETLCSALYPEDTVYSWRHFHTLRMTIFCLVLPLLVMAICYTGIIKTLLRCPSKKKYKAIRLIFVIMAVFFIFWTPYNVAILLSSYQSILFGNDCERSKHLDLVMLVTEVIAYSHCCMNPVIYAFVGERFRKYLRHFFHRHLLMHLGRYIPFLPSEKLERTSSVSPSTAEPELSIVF
Procedure: Human Eosinophil Chemotaxis
Human eosinophils were isolated from EDTA anticoagulated peripheral blood as previously described (Hansel et al., J. Immunol. Methods, 1991, 145, 105-110). The cells were resuspended at 10×10^6 ml^−1 in RPMI containing 200 μg/ml penicillin, 200 μg/ml streptomycin sulfate and supplemented with 10% HIFCS, at room temperature.
Eosinophils (700 μl) were pre-incubated for 15 mins at 37° C. with 7 μl of either vehicle or compound (100× required final concentration in 10% DMSO). The chemotaxis plate (ChemoTx, 3 μm pore, Neuroprobe) was loaded by adding 28 μl of a concentration of eotaxin 0.1 to 100 nM (a selective CCR3 agonist over this concentration range) containing a concentration of a compound according to the Examples or solvent to the lower wells of the chemotaxis plate. The filter was then placed over the wells and 25 μl of eosinophil suspension were added to the top of the filter. The plate was incubated for 1 hr at 37° C. in a humidified incubator with a 95% air/5% CO2 atmosphere to allow chemotaxis.
The medium, containing cells that had not migrated, was carefully aspirated from above the filter and discarded. The filter was washed once with phosphate buffered saline (PBS) containing 5 mM EDTA to remove any adherent cells. […] The number of eosinophils migrating was quantified according to the method of Strath et al., J. Immunol. […]

[2] = target: T2, human H1 receptor (Homo sapiens, UniProt P35367); assay: Histamine H1 receptor binding, competition displacement of [3H]-pyrilamine; conditions: 1 nM [3H]-pyrilamine; membranes from recombinant CHO-K1 cells expressing the human H1 receptor; 1 hour at room temperature; read-out: H1 pKi/ [1328_S] (converted)
T2 construct: purchased Furoscreen S A, Brussels, Belgium (so in the source); host or cells: CHO-K1
Procedure: Histamine H1 receptor binding activity of compounds of the invention was assessed by competition displacement of 1 nM [3H]-pyrilamine (Amersham, Bucks, Product code TRK 608, specific activity 30Ci/mmol) to 2 μg membranes prepared from recombinant CHO-K1 cells expressing the human H1 receptor (Furoscreen S A, Brussels, Belgium, product code ES-390-M) in assay buffer (50 mM Tris pH 7.4 containing 2 mM MgCl2, 250 mM sucrose and 100 mM NaCl) for 1 hour at room temperature.

T2 sequence (P35367 whole entry): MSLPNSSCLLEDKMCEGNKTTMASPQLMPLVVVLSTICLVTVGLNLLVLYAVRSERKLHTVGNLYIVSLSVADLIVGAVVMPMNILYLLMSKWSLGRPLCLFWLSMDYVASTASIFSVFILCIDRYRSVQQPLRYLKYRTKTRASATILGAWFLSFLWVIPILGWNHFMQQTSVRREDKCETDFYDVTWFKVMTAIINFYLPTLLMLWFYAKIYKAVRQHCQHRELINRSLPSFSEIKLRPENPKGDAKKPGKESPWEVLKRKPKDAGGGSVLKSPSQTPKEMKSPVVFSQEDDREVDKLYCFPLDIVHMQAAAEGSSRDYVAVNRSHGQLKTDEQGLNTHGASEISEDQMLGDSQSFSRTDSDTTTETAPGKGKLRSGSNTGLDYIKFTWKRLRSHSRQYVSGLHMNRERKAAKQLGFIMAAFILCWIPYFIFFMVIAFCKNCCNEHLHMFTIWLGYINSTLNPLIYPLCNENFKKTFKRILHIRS

| SMILES | inhibition at 1 µM [1] | Ki [2] |
| --- | --- | --- |
| CS(=O)(=O)c1cccc(C(=O)N2CCO[C@@H](CN3CCC(Oc4ccc(Cl)c(Cl)c4)CC3)C2)c1 [Example 5, (2S)-2-{[4-(3,4-Dichlorophenoxy)piperidin-1-yl]methyl}-4-[3-(methylsulfonyl)benzoyl]morpholine] | > 75% | 20 nM |
| O=C(c1cn2cc(F)ccc2n1)N1CCOC(CN2CCC(Oc3ccc(Cl)c(Cl)c3)CC2)C1 (stereo not drawn) [Example 3, 2-[(2-{[4-(3,4-dichlorophenoxy)piperidin-1-yl]methyl}morpholin-4-yl)carbonyl]-6-fluoroimidazo[1,2-a]pyridine] |  | 12.6 nM |
| CS(=O)(=O)c1cccc(C(=O)N2CCOC(CN3CCC(Oc4ccc(Cl)c(Cl)c4)CC3)C2)c1 (stereo not drawn) [Example 4, 2-{[4-(3,4-dichlorophenoxy)piperidin-1-yl]methyl}-4-[3-(methylsulfonyl)benzoyl]morpholine] |  | 100 nM |
| O=C(c1c[nH]c(=O)c2ccccc12)N1CCO[C@H](CN2CCC(Oc3ccc(Cl)c(Cl)c3)CC2)C1 [Example 73] | > 75% | 7.94 nM |
